# Read-outs that look alike come from different tables or passages of the source. Where no end group is shown, it is not given here.
# Legend:
# [1] = tested on: Human foreskin fibroblasts (HFF) cells; experiment: Toxicity against primary cultures of human cells (LIVE/DEAD)
# Experimental: Human foreskin fibroblasts (HFF) cells were grown in high glucose DMEM (Invitrogen, Carlsbad, CA) supplemented with 10% fetal bovine serum (Sigma, St. Louis, MO) and penicillin/streptomycin 100 U/ml (Invitrogen, Carlsbad, CA). The cultures were incubated at 37 °C in 95% air and 5% carbon dioxide with 95% humidity. After 24 hr of plating, 15 micro liters of a stock solution of each peptide was added and 72 hr later cell viability was estimated using the LIVE/DEAD cytotoxicity kit (Molecular Probes L-3224, Invitrogen, Carlsbad, CA) according to manufacturer instructions (4 μM Eth D-1 and 2 μM Calcein AM were used). The esterase substrate calcein AM gives a green fluorescent product when hydrolyzed; therefore, cells stained green have esterase activity and consequently an intact membrane capable of retaining the esterase product. Ethidium homodimer-1, an impermeable dye that binds DNA, enters only into compromised cellular membranes commonly observed in death cells.
# All these concentrations are the dry weight of each peptide.
# Images were taken on a Nikon Eclipse TE300 fluorescence microscope from representative fields. Each peptide was tested in two independent assays, each performed in triplicates.
# E. coli (DH10B) = type: cell-based, Escherichia coli; details: for antibacterial activity (in words): LB, see Table S2, Figure 1A and 1B; for MIC: LB medium, 37°C, 10 h, OD 600 nm, lowest concentration where no visible growth occurred, four independent experiments
# Experimental: To evaluate the antibacterial activity of the Iztli peptides, the Escherichia coli DH1OB strain, Δ(mrr-hsd RMS-mcrBC) mcrA recA1 was used.
# Serial dilutions of peptides were prepared in sterilized water. These concentrations are reported as the dry weight of each peptide. To determine the actual concentration of these peptides in solution, we estimated the molar absorption coefficient from the absorbance of each peptide at 214 nm using a spectrophotometer HP8452, kindly provided by Dr. Armando Gomez-Puyou. Then, the concentration of each peptide was calculated as: C = A/(L*MAC); where C: concentration (M), A: absorbance (arbitrary unit), L: length of the path of the spectrophotometer cell (cm) and MAC: the molar absorption coefficient (M^−1cm^−1).
# The antibacterial activity of the synthetic peptides was examined in sterile 100-well plates (HC2 Pat. Pend., Finland) in a final volume of 200 µl as follows: aliquots (25 µl) of a suspension containing bacteria at a concentration of 10^5 CFU/mL in LB medium were added to 75 µl of water containing the peptide. The mixture was completed by the addition of 100 µl of 2×-concentrated LB medium. The plates were incubated at 37°C with constant orbital shaking for 10 h (at a rate specified by the equipment provider as “High”). Microbial growth was automatically determined by reading every 60 minutes the optical density at 600 nm with an OY Microplate Reader (Bioscreen C, Finland).
# The minimum inhibitory concentration (MIC) was determined as the lowest concentration where no visible growth occurred. At least three different concentrations were tested for each peptide to find the corresponding MIC. All MICs were determined from four independent experiments. […]
# [2] = tested on: S. cerevisiae WT (BY4741); experiment: Area under the growth curve (AUC), wild type control of gene screen; type: cell-based, Saccharomyces cerevisiae; details: 10 µM peptide, 24 h growth curve; control value of Figure S1
# Experimental: (§1) An early stationary culture for every essay was obtained from a single colony growing overnight in YPD medium. This culture was used to inoculate a fresh YPD medium to reach 0.04 O.D. in a total volume of 200 µL. Every peptide and strain were tested in 96 well plates, each well containing 200 µL, incubating at 30°C with shaking using a Bioscreen C (Oy Growth Curves Ab Ltd, Finland). The activity of these peptides on each strain was determined by following the cultures during 24 hrs and recording the O.D. every hour. Lack of change in O.D. measured during 24 hours was indicative of antifungal activity.
# (§2) The cultures were prepared as in the antifungal activity assay described before (see above). To identify the strains lacking a gene required to inhibit in at least 50% the normal growth of the cells, the area under the growth curve (AUC) was calculated using software designed ad hoc in our laboratory. Thus, the ratio of the AUCs of the cells in the absence and in the presence of the peptide was determined; any strain rendering a ratio value between 1.0 and 2.0 was considered to carry a deletion of a critical gene.
# [3] = tested on: null mutant of the STE4 gene (BY4741 MATa ∆ste4); experiment: Screening for resistant gene deletions: STE4 null mutant; type: cell-based, Saccharomyces cerevisiae; details: 10 µM, Table S1 and Figure S1
# Experimental: as §1, §2
# bacteria = details: values marked (*), ref 36 ([3] in supplement, del Rio et al., 2001); cited from earlier work
# From the text: Supplement pone.0040125.s019.doc, table 1: Supplementary Table S2. Designed selective antibacterial peptides | column: MIC (µM)
# human cells = details: cited from earlier work
# From the text: Supplement pone.0040125.s019.doc, table 1: Supplementary Table S2. Designed selective antibacterial peptides | column: Toxicity (µM)
# isolated mitochondria = experiment: Mitochondrial swelling; type: biochemical, Saccharomyces cerevisiae; details: absorbance at 540 nm; IP1 117 µM, fIP1 100 µM, α-pheromone 160 µM (Figure 1C)
# Experimental: We isolated mitochondria as described in Supporting Information S1 (see section I.2). Swelling of mitochondria was determined as reported before. Briefly, fresh mitochondria were diluted in 1 mL of 0.3 M mannitol, 5 mM MES, pH 6.8 (TEA) and 5 µL of ethanol. After 20 seconds, when optical density was stable, the peptides were added. The absorbance at 540 nm was recorded in a DW2 Aminco spectrophotometer (Olis, Inc, USA) in a split mode with magnetic stirring. A decrease in the absorbance was indicative of mitochondrial swelling. To determine the integrity of mitochondrial membranes, 10% of PEG 10 kDa (final concentration) was used to induce water release from mitochondria.
# Mitochondria were obtained as described before. Briefly, yeast was incubated in YPD preculture medium for 24 h at 30° C, with agitation at 250 rpm, then the cells were cultured in YPlac at 30° C for 24 h at 250 rpm to improve respiration. Cells were collected and washed twice by centrifugation. The cells were suspended in cold isolating medium (5 mM MES, 0.6 M mannitol, 0.1% bovine serum albumin; the pH was adjusted to 6.8 with triethanolamine). The cells were disrupted into a Bead-Beater cell homogenizer (Biospec Products, USA) with 0.5 mm diameter glass beads, using three 20 seconds pulses separated by 40 seconds intervals. […] Protein concentration was determined by the Biuret method.
# [4] = tested on: MatA cells from Saccharomyces cerevisiae (BY4741); experiment: Antifungal activity (optical density growth curves); type: cell-based; details: YPD, 30°C, 24 h, OD and CFU; IP1 10 µM, fIP1 60 µM (Figure 3)
# Experimental: as §1
# [5] = 72 hr exposure, calcein AM / ethidium homodimer-1 staining
# [6] = HFF cells, 72 hr exposure, LIVE/DEAD kit, > means no toxicity at the tested concentration, two independent assays in triplicates
Molecule,"toxicity on HFF cells (in words) [1, 5]","Toxicity [1, 6]",MIC (E. coli (DH10B)),further results
CSCC[C@H](NC(=O)[C@@H]1CCCN1C(=O)[C@H](CCC(N)=O)NC(=O)CNC(=O)[C@@H]1CCCN1C(=O)[C@H](CCCCN)NC(=O)[C@H](CC(C)C)NC(=O)[C@H](CCC(N)=O)NC(=O)[C@H](CC(C)C)NC(=O)[C@H](Cc1c[nH]c2ccccc12)NC(=O)[C@H](Cc1c[nH]cn1)NC(=O)[C@H](Cc1c[nH]c2ccccc12)NC(=O)[C@H](Cc1ccccc1)NC(=O)[C@H](CCCNC(=N)N)NC(=O)[C@H](CC(N)=O)NC(=O)[C@H](CC(C)C)NC(=O)[C@H](Cc1ccccc1)NC(=O)[C@@H](N)CCCCN)C(=O)N[C@@H](Cc1ccc(O)cc1)C(=O)O [IP1],no toxicity,,,antibacterial activity (in words) (E. coli (DH10B)): presented anti-bacterial activity; area under the growth curve (AUC) [2]: 0.09; killing activity on STE4 null mutant [3]: resistant
FLHSAKKF [PH(SCAP*)4],not toxic,>500 µM,>300 µM,
GIGKFLHSAKKFGKAFVGEIMNS [Magainin 2],,,,MIC (bacteria): 16 µM; Toxicity (human cells): >170 µM
GKFLHSAK [PH(SCAP*)2],not toxic,>500 µM,>300 µM,
GKFLHSAKKFGK [PH(SCAP*)6],not toxic,>500 µM,>300 µM,
HSAKKFGK [PH(SCAP*)5],not toxic,>500 µM,>300 µM,
KFLHSAKK [PH(SCAP*)3],not toxic,>500 µM,>300 µM,
"KFLNRF [fIP1, the six residues at the N-terminus of IP1, control peptide]",,,,mitochondrial swelling activity (isolated mitochondria): did not exhibit any activity; antifungal (killing) activity [4]: did not exhibit any activity
KWKLFKKI [PH(SCAP*)1],not toxic,>460 µM,,
"KWKLFKKIEKVGQNIRDGIIKAGPAVAVVGQATQIAK (Cecropin-A; UniProt P01507 27-63, looked up) [Cecropin A]",,,,MIC (bacteria): 0.1 µM; Toxicity (human cells): >50 µM
LKKLKLLLKLL [PH(CeMa)1],,,,Toxicity [1]: >90 µM; toxicity on HFF cells (in words) [1]: none of the peptides induced cell death
LKKLLKLLL [PH(Magainin)1],,,,Toxicity [1]: >120 µM; toxicity on HFF cells (in words) [1]: none of the peptides induced cell death
"RRLKDFWHWLQLKPGQPMY [IP2, 19-residue Iztli peptide: α-pheromone with 6 residues added at the N-terminus]",,,20 µM,Toxicity [1]: >36 µM; toxicity on HFF cells (in words) [1]: no toxicity; antibacterial activity (in words) (E. coli (DH10B)): presented anti-bacterial activity

# — publication PMC3396687, “Moonlighting Peptides with Emerging Function” (PLoS ONE, 2012)
